Columns and labels:
[1] = molecular target: T1, Protein cereblon/Stimulator of interferon genes protein (Homo sapiens, UniProt Q96SW2+Q86WV6); assay: Protac activity at CRBN/STING in human THP-1 cells assessed as increase in STING degradation at 10 uM incubated for 48 hrs by Western blot analysis relative to control; format: cell-based
Target sequence in this assay (Q86WV6 whole entry, looked up): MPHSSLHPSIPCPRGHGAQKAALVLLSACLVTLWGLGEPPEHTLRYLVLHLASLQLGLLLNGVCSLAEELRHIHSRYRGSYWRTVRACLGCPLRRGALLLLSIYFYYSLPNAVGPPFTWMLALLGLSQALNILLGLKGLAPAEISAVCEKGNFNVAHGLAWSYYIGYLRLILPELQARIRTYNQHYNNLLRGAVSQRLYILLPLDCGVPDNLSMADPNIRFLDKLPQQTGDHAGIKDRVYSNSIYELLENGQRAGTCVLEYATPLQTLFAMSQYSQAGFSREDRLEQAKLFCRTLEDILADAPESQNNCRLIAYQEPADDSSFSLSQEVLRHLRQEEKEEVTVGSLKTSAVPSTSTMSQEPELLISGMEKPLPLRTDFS
Target sequence in this assay (Q96SW2 whole entry, looked up): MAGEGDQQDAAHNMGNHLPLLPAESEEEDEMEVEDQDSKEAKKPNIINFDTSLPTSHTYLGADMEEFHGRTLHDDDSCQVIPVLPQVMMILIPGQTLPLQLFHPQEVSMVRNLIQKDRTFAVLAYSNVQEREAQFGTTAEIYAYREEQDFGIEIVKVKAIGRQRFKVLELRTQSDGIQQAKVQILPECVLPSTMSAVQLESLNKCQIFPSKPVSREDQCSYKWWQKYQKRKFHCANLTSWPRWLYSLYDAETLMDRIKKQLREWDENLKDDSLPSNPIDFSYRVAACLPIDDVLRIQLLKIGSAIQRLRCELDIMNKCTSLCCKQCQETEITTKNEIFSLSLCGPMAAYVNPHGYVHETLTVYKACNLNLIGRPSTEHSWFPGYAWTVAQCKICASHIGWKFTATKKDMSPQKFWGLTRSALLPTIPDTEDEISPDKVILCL

[2] = molecular target: T1, Protein cereblon/Stimulator of interferon genes protein; assay: Protac activity at CRBN/STING in human THP-1 cells assessed as increase in STING degradation incubated for 48 hrs by Western blot analysis; format: cell-based
Target sequence in this assay (Q96SW2 whole entry): as the sequence (Q96SW2 whole entry, looked up) above
Target sequence in this assay (Q86WV6 whole entry): as the sequence (Q86WV6 whole entry, looked up) above

[3] = Cytotoxicity against mouse C17.2 cells assessed as reduction in cell viability at <10 uM by MTT assay; format: toxicity, cell-based; conditions: c17.2, 10 µM
[4] = system: L02; assay: Cytotoxicity against human L02 cells assessed as reduction in cell viability at <10 uM by MTT assay; format: toxicity, cell-based; conditions: l02, 10 µM
[5] = Cytotoxicity against HEK293-A cells assessed as reduction in cell viability at <10 uM by MTT assay; format: toxicity, cell-based; conditions: human

Activity [1]: 22%
DC50 [2]: > 10 µM
SMILES: O=C(/C=C/C(=O)Nc1ccc(NC(=O)c2ccc([N+](=O)[O-])o2)cc1)NCCCCNc1cccc2c1C(=O)N(C1CCC(=O)NC1=O)C2=O (stereo not given)
Activity [3]: Non-Toxic
Activity [4]: Non-Toxic
Activity [5]: Non-Toxic
